Test results published in patent US9114163B2, “Medication against breast cancer and related diseases” (MaBel GmbH, priority 2006, dated 2015).

Key:
[1] = test system: malign breast carcinoma (C. mammae); assay: Double blind clinical test, topical cream, patients with malign breast carcinoma; type: in vivo, human; conditions: for Clinical Remission: topical cream once a day
Method: (§1) Double blind clinical tests were conducted with a group of 10 female patients. In this clinical testing, particular attention was paid to hormone receptor statuses of patients' target breast cancer tissue regarding progesterone receptor (PR) and in particular regarding estrogen receptor (ER); The cancers of the patients were assumed to be predominantly androgen receptor (AR) positive. Among this group, six patients had histologically ascertained malign breast carcinoma (C. mammae). […] In a sixth patient, the presence of a malign breast carcinoma was ascertained, but the amount of cancer tissue was too low to determine receptor status.
(§2) All 10 female patients were topically and locally treated using 4-hydroxytestosterone as active agent, by administering of a cream as described in Example 2 locally to target skin portions of the breasts. After continuing daily topical administration once a day during an administration period of 3 months, clinical investigations on therapeutic effects were performed.
The results of the 6 patients having malign breast carcinoma are shown in the following Table 1, together with the receptor status determined for patient nos. 1 to 5.

[2] = test system: normal or mastopathic breast tissue; assay: Double blind clinical test, topical cream, patients with non-malign breast tissue; type: in vivo, human; conditions: 4 patients with non-malign disease states, topical administration
Method: as §1, §2

[3] = test system: MCF-7 cells; assay: Inhibition of MCF-7 cell proliferation (counting of vital cells); type: cell-based, human; conditions: 10^-7 M, 10^-8 M, 10^-9 M; cell counts after 3, 6 and 9 days; compared with DHT and control
Method: MCF-7 cells were grown in RPMI 1640 medium at 37° C. to a cell number of about 1*10^5 cells/ml. Then, in quadruple identical MCF-7 cell samples, there were added either dihydrotestosterone (DHT) or 4-hydroxytestosterone (4-OHT), to obtain different concentrations thereof, namely 10^−7 M, 10^−8 M or 10^−9 M, and further growth of cells were determined by counting of vital cells. During the course of incubation at 37° C., cell counting were performed after 3, 6 and 9 days. For control, growth of MCF-7 cells were determined without addition of an active agent.
The results on an inhibition of MCF-7 cell proliferation are shown in FIGS. 1A, 1B and 1C for the compound concentrations of 10^−7 M, 10^−8 M and 10^−9 M of either DHT or 4-OHT, respectively, and compared with the control.

## C[C@]12CC[C@H]3[C@@H](CCC4=C(O)C(=O)CC[C@@]43C)[C@@H]1CC[C@@H]2O [4-hydroxytestosterone, 4,17β-dihydroxyandrost-4-ene-3-one]
[1]; Patient # 1, ER 0, PR 0, Her2neu 0, 3 months
  Clinical Remission: yes
[1]; Patient # 3, ER 0, PR 0, Her2neu 0, 3 months
  Clinical Remission: yes
[1]; Patient # 6, receptor status not determined, 3 months
  Clinical Remission: yes
[1]; clinical study, ER negative tumours, topical cream, 3 months
  treatment of ER negative cancer cells: effectively treated
[1]; clinical study, topical cream, 3 months
  efficacy in shrinking cancerous tissues: excellent efficacy in shrinking cancerous tissues
[1]; of 6 patients with malign breast carcinoma, those so far subjected to post-treatment investigation, 3 months topical
  patients with noticeable remission of breast cancer tissues as determined by mammography: three
[2]
  tissue reduction of normal or mastopathic appearing tissues: clear tendency for tissue reduction
[3]
  inhibitory effect on MCF-7 cell proliferation: significantly enhanced inhibitory effect
